Experimental data reported in US10774080B2, “Pyrimidine compound as JAK kinase inhibitor” (THERAVANCE BIOPHARMA R&D IP, LLC, priority 2017, dated 2020).

Key:
[1] = Dynamic moisture sorption (DMS); type: physicochemical; details: for total moisture uptake between 5 and 90% RH: 25° C.
Description: Dynamic moisture sorption (DMS) measurement was performed using a VTI atmospheric microbalance, SGA-100 system (VTI Corp., Hialeah, Fla. 33016). A weighed sample was used and the humidity was lowest possible value (close to 0% RH) at the start of the analysis. The DMS analysis consisted of an initial drying step (0% RH) for 120 minutes, followed by two cycles of sorption and desorption with a scan rate of 5% RH/step over the humidity range of 5% RH to 90% RH. The DMS run was performed isothermally at 25° C. The total moisture uptake between 5 and 90% RH was 1.96%.
The DMS analysis consisted of an initial drying step (0% RH) for 120 minutes, followed by two cycles of sorption and desorption with a scan rate of 5% RH/step over the humidity range of 5% RH to 90% RH. The DMS run was performed isothermally at 25° C. The total moisture uptake between 5 and 90% RH was about 0.02%.

in vitro = in vitro ADME; details: human, microsomes, pH 7.4, HLM Clint
Description: Assay 17: Human Liver Microsome Assay The objective of this assay was to assess the metabolic stability of test compounds in an in vitro human liver sub-fraction. Human liver microsomes obtained from Bioreclamation-IVT (Baltimore, Md.) were thawed on ice and diluted into 0.1M potassium phosphate buffer pH 7.4 to yield final incubation protein concentrations of 0.1 mg/mL. […] Incubations were conducted at 37° C. temperature and test aliquots were taken at time points 0, 5, 8, 15, 30 and 45 minutes. […] The resulting samples were injected onto an LC-MS/MS system for analysis. For each incubation, the peak area of the analytes in each t0 aliquot was set to 100% and the peak areas from subsequent time point aliquots were converted to percentage of parent compound remaining relative to t0. The percentage of parent compound remaining was converted to natural log scale and plotted versus time in minutes. A linear regression analysis was performed for the initial decline of the parent disappearance profile and a formula for the best-fit line determined. The slope of the resultant line was normalized to protein concentration in mg/mL protein or number of cells/mL and CLint was calculated as follows for liver microsomes: CLint (μL·min^−1·mg^−1)=(Slope×1000)/[protein,mg/mL]

Row | SMILES | hygroscopicity (in words) [1] | total moisture uptake between 5 and 90% RH [1] | microsomal CLint at 0.1 μM (in vitro)
1 | CCS(=O)(=O)N1[C@@H]2CCC[C@H]1C[C@H](N(C)c1nc(CO)c(F)c(Nc3cc(C)[nH]n3)n1)C2 [Form II] | non-hygroscopic | about 0.02% | –
2 | Cc1cc(Nc2cc(CO)nc(N(C)[C@@H]3C[C@H]4CC[C@@H](C3)N4CCC#N)n2)n[nH]1 [Compound C-2, 3-((1R,3s,5S)-3-((4-(hydroxymethyl)-6-((5-methyl-1H-pyrazol-3-yl)amino)pyrimidin-2-yl)(methyl)amino)-8-azabicyclo[3.2.1]octan-8-yl)propanenitrile, reference compound] | – | – | 12 µL/min/mg
3 | CCS(=O)(=O)N1[C@@H]2CCC[C@H]1C[C@H](N(C)c1nc(Nc3cc(C)[nH]n3)cc(C(N)=O)n1)C2 [Compound C-1, 2-(((1R,3s,5S)-9-(ethylsulfonyl)-9-azabicyclo[3.3.1]nonan-3-yl)(methyl)amino)-6-((5-methyl-1H-pyrazol-3-yl)amino)pyrimidine-4-carboxamide, reference compound] | – | – | 6 µL/min/mg
4 | CCS(=O)(=O)N1[C@@H]2CCC[C@H]1C[C@H](N(C)c1nc(CO)c(F)c(Nc3cc(C)[nH]n3)n1)C2 [Form I] | – | 1.96% | –
